Results taken from ChEMBL document CHEMBL1140044, “Structure-activity relationship study on anti-HIV 6-desfluoroquinolones” (J Med Chem, 2008).
In brackets after ≈: the same amount, converted by molar mass. Activity calls are given as the source filed them. No cut-off for these calls is given here.

What was measured:
[1] = system: Human immunodeficiency virus 1; assay: Antiviral activity against HIV1 3B in MT4 cells assessed as inhibition of virus-induced cytopathogenicity by MTT assay; type: functional, organism-based; settings: Human immunodeficiency virus 1, 3B
[2] = Selectivity index, ratio of CC50 for human MT4 cells to EC50 for HIV2 ROD; type: toxicity, cell-based; settings: read-out: Ratio CC50/EC50
[3] = system: Human immunodeficiency virus 2; assay: Antiviral activity against HIV2 ROD in MT4 cells assessed as inhibition of virus-induced cytopathogenicity by MTT assay; type: functional, organism-based; settings: Human immunodeficiency virus 2, ROD
[4] = Cytotoxicity against mock-infected human MT4 cells after 5 days by MTT assay; type: cell-based
[5] = Selectivity index, ratio of CC50 for human MT4 cells to EC50 for HIV1 3B; type: toxicity, cell-based; settings: read-out: Ratio CC50/EC50
[6] = Selectivity index, ratio of CC50 for human CEM cells to EC50 for HIV2 ROD; type: toxicity, cell-based, CCRF-CEM; settings: read-out: Ratio CC50/EC50
[7] = Selectivity index, ratio of CC50 for human PBMC cells to EC50 for HIV1 3B; type: toxicity, cell-based; settings: read-out: Ratio CC50/EC50
[8] = system: Human immunodeficiency virus 1; assay: Antiviral activity against HIV1 3B in PBMC assessed as inhibition of p24 production after 7 days by ELISA; type: functional, organism-based; settings: Human immunodeficiency virus 1, 3B, 168 h
[9] = system: Human immunodeficiency virus 2; assay: Antiviral activity against HIV2 ROD in CEM cells assessed as inhibition of virus-induced syncytium formation after 4 days by microscopy; type: functional, organism-based; settings: Human immunodeficiency virus 2, ROD, CCRF-CEM, 96 h
[10] = Selectivity index, ratio of CC50 for human CEM cells to EC50 for HIV1 3B; type: toxicity, cell-based, CCRF-CEM; settings: read-out: Ratio CC50/EC50
[11] = system: Human immunodeficiency virus 1; assay: Antiviral activity against HIV1 3B in CEM cells assessed as inhibition of virus-induced syncytium formation after 4 days by microscopy; type: functional, organism-based; settings: Human immunodeficiency virus 1, 3B, CCRF-CEM, 96 h
[12] = Cytotoxicity against mock-infected human PBMC cells by trypan blue exclusion assay; type: cell-based
[13] = Cytotoxicity against mock-infected human CEM cells by Coulter counter; type: cell-based; settings: mock-infected CEM (CCRF-CEM) cells
[14] = molecular target: T1, Protein Tat (Human immunodeficiency virus type 1 group M subtype B (isolate HXB2)(HIV-1)) (UniProt P04608); assay: Inhibition of HIV1 Tat-mediated LTR promoter transactivation in Tat/GFP plasmid expressed in Jurkat cells assessed as GFP gene expression by FACS analysis; type: cell-based; settings: Human immunodeficiency virus 1
T1 sequence (whole entry): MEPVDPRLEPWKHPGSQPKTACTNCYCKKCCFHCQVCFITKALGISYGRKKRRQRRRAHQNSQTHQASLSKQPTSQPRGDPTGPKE

[15] = system: Human immunodeficiency virus 1; assay: Inhibition of HIV1 3B production in chronically infected HUT78 cells assessed as virus p24 antigen production after 44 hrs by ELISA; type: functional, organism-based

Structure (SMILES)	EC50 [1] [µg/mL]	selectivity ratio [2]	EC50 [3] [µg/mL]	CC50 at 120 h [4] [µg/mL]	selectivity ratio [5]	selectivity ratio [6]	selectivity ratio [7]	EC50 [8] [µg/mL]	EC50 [9] [µg/mL]	selectivity ratio [10]	EC50 [11] [µg/mL]	CC50 [12] [µg/mL]	CC50 [13] [µg/mL]	Activity [14]	Activity [15]
Cn1cc(C(=O)NCc2ccc(Cl)cc2)c(=O)c2cc(N)c(N3CCN(c4ccccn4)CC3)cc21	> 125	1	> 125	> 125	–	–	–	–	–	–	–	–	–	–	–
Cn1cc(C(=O)O)c(=O)c2cc(N)c(N3CCC(c4ccccn4)CC3)cc21	> 125	–	> 125	> 125	–	–	–	–	–	–	–	–	–	–	–
Cn1ccc(=O)c2cc(N)c(N3CCN(c4nccs4)CC3)cc21	> 89.5	< 1	> 89.5	89.5 (≈ 262 µM)	< 1	–	–	–	–	–	–	–	–	–	–
CO/N=C(\C)c1cn(C)c2cc(N3CCN(c4ccccn4)CC3)c(N)cc2c1=O	> 92.6	< 1	> 92.6	92.7 (≈ 228 µM)	< 1	–	–	–	–	–	–	–	–	–	–
Cn1cc(C(=O)O)c(=O)c2ccc(N3CCN(c4ccccn4)CC3)cc21	19.2 (≈ 52.7 µM)	< 1	> 65.5	65.5 (≈ 180 µM)	3.4	> 56	> 74	1.35 (≈ 3.7 µM)	1.8 (≈ 4.94 µM)	> 83	1.2 (≈ 3.29 µM)	> 100	> 100	–	–
Cn1cc(C(=O)O)c(=O)c2cc(N)c(N3CCN(Cc4ccccn4)CC3)cc21	> 125	–	> 125	> 125	–	–	–	–	–	–	–	–	–	–	–
C/C(=N\O)c1cn(C)c2cc(N3CCN(c4ccccn4)CC3)c(N)cc2c1=O	> 125	–	> 125	> 125	–	–	–	–	–	–	–	–	–	–	–
Cn1cc(C(=O)O)c(=O)c2ccc(N3CCN(c4nc5ccccc5o4)CC3)cc21	5.76 (≈ 14.2 µM)	> 11	11.9 (≈ 29.3 µM)	> 125	> 22	> 7	–	–	14 (≈ 34.6 µM)	> 30	3.35 (≈ 8.28 µM)	–	> 100	Dose-dependent effect	–
Nc1cc2c(=O)c(C(=O)O)c[nH]c2cc1N1CCN(c2nccs2)CC1	1.21 (≈ 3.26 µM)	5	1.92 (≈ 5.17 µM)	7.61 (≈ 20.5 µM)	7	26	10	0.21 (≈ 0.565 µM)	0.6 (≈ 1.62 µM)	23	0.7 (≈ 1.88 µM)	2.02 (≈ 5.44 µM)	15.8 (≈ 42.5 µM)	–	–
Cn1cc(C(N)=O)c(=O)c2cc(N)c(N3CCN(c4ccccn4)CC3)cc21	> 125	–	> 125	> 125	–	–	–	–	–	–	–	–	–	–	–
Cn1cc(C(=O)O)c(=O)c2cc(N)c(N3CCN(c4ccccn4)CC3)cc21	0.058 (≈ 0.153 µM)	10	0.097 (≈ 0.256 µM)	0.84 (≈ 2.21 µM)	15	> 1670	29	0.051 (≈ 0.134 µM)	0.06 (≈ 0.158 µM)	> 3330	0.03 (≈ 0.0791 µM)	1.45 (≈ 3.82 µM)	> 100	–	–
Cn1ccc(=O)c2cc(N)c(N3CCN(c4ccccn4)CC3)cc21	> 105	< 1	> 104	105 (≈ 313 µM)	< 1	–	–	–	–	–	–	–	–	–	–
Cc1cccc(Sc2cc3c(cc2N)c(=O)c(C(=O)O)cn3C)c1	> 2	< 1	> 2	> 2	< 1	–	–	–	–	–	–	–	–	–	–
Cn1cc(C(=O)O)c(=O)c2ccc(N3CCN(c4cccc(C(F)(F)F)c4)CC3)cc21	0.07 (≈ 0.162 µM)	21	0.13 (≈ 0.301 µM)	2.61 (≈ 6.05 µM)	38	4	2	0.28 (≈ 0.649 µM)	0.28 (≈ 0.649 µM)	9	0.13 (≈ 0.301 µM)	0.69 (≈ 1.6 µM)	1.2 (≈ 2.78 µM)	–	Active
Cn1cc(C(=O)O)c(=O)c2cc(N)c(N3CCC(c4ccccn4)C3)cc21 (stereo not given)	> 90.8	< 1	> 90.8	> 90.8	< 1	–	–	–	–	–	–	–	–	–	–
